Reference: patent publication US9617278B2, “Antimicrobial compounds” (Dow Global Technologies LLC, priority 2012, dated 2017)
Each block holds one compound with its values, some of them ahead of it.

What was measured:
[1] = tested on: mixed pool of 6 bacterial species (aerobic organisms); assay: Biocidal efficacy at room temperature, aerobic bacteria; type: cell-based
Description: (§1) Glutaraldehyde and Compounds 1 and 2 are tested for biocidal activity against a pool of aerobic organisms at room temperature and against sulfate reducing bacteria (SRB) at room temperature. Tests are performed as follows:
(§2) a. Stock preparation. Glutaraldehyde (50% in water) and Compounds 1 and 2 are each dissolved in DMSO to a concentration of 200 mM, which is equivalent to 20,000 ppm of free glutaraldehyde.
b. Aerobic Bacteria—a mixed pool of 6 bacterial species at ˜5×10^6 CFU/mL in phosphate buffered saline is distributed into a 96-well plate. Each well receives an independent chemical treatment of glutaraldehyde or Compound 1 or 2 at concentrations ranging from 200 ppm to 12 ppm glutaraldehyde. A control treatment of DMSO alone is also included. Each condition is tested in triplicate. After set periods of incubation (1, 4, and 24 h), the number of surviving cells in each well are enumerated by dilution to extinction in a medium containing resazurin dye as an indicator. c. Sulfate Reducing Bacteria (SRB)—SRB testing is performed as for the aerobic bacteria with the following modifications: the species Desulfovibrio longus is tested in anaerobic PBS and the enumeration of surviving cells is performed in a medium containing soluble iron as an indicator. d. Results: Values indicate the minimum dose needed (in ppm) to achieve 3-log reduction in bacteria levels. […]

Desulfovibrio longus = assay: Biocidal efficacy at room temperature, sulfate reducing bacteria (SRB); type: cell-based; conditions: for minimum dose needed to achieve 3-log reduction in bacteria levels: SRB, anaerobic PBS, doses 200 to 12 ppm glutaraldehyde equivalent, n/a = threshold not met at any tested dose; for activity against SRB (in words): compared with glutaraldehyde
Description: as §1, §2
b. Aerobic Bacteria—a mixed pool of 6 bacterial species at ˜5×10^6 CFU/mL in phosphate buffered saline is distributed into a 96-well plate. Each well receives an independent chemical treatment of glutaraldehyde or Compound 1 or 2 at concentrations ranging from 200 ppm to 12 ppm glutaraldehyde. A control treatment of DMSO alone is also included. Each condition is tested in triplicate. After set periods of incubation (1, 4, and 24 h), the number of surviving cells in each well are enumerated by dilution to extinction in a medium containing resazurin dye as an indicator. c. Sulfate Reducing Bacteria (SRB)—SRB testing is performed as for the aerobic bacteria with the following modifications: the species Desulfovibrio longus is tested in anaerobic PBS and the enumeration of surviving cells is performed in a medium containing soluble iron as an indicator. d. Results: Values indicate the minimum dose needed (in ppm) to achieve 3-log reduction in bacteria levels. “n/a” indicates the threshold was not met at any of the tested doses. “N.D” indicates data not available.

[2] = tested on: Thermus thermophilus (ATCC 27634); assay: Biocidal efficacy at elevated temperature; type: cell-based; conditions: for log kill of treated bacterial populations relative to an untreated control: 50 ppm glutaraldehyde equivalent
Description: Compound 1 (208 mg) is dissolved in DMSO (5 mL) to yield a 200 mM solution such that the glutaraldehyde-equivalent concentration of the stock solution is 20,000 ppm. The bacterial strain Thermus thermophilus (ATCC 27634) is maintained at 70° C. After 24-48 hours of growth, 10 mL of bacterial culture are harvested by spinning in a Beckman-Coulter benchtop centrifuge at 3000 rpm for 15 min. The cell pellet is resuspended in 100 mL of phosphate-buffered saline (PBS) to give approximately 5×10^5 CFU/mL and aliquoted into 10 mL portions in glass test tubes fitted with screw caps. Samples are equilibrated to 37, 55, or 70° C. for 30 min and then treated with glutaraldehyde or Compound 1 at 50 ppm glutaraldehyde equivalent. The treated samples are returned to their respective equilibration temperatures for 4 h and then enumerated for surviving bacteria. After 24 h, the process is repeated by adding fresh grown bacteria to the samples to re-challenge the biocide. The samples are again enumerated after 4 h.
Results are reported in terms of log kill of treated bacterial populations relative to an untreated control at each temperature. For values listed as “>x,” actual kill may have been higher but could not be detected by this assay.

[3] = Stability of the compound on work-up, GC of dried sample; type: physicochemical; conditions: GC peak becomes smaller after drying of the crude material
Description: A three neck 50 mL round bottom flask equipped with a stir bar, thermocouple, addition funnel capped with nitrogen inlet and condenser is charged with 2-amino-2-methylpropan-1-ol (95%, 7.8 g, 0.083 mols, 1.0 equivalents). The flask is cooled down to approximately 10° C. under ice/water bath. Once the temperature is reached, glutaraldehyde (50%, 16.7 g, 0.083 mols, 1.0 equivalents) is added drop wise over a period of 15-20 minutes. The reaction temperature is maintained by cooling the bath and by controlled addition of glutaraldehyde. After complete addition of glutaraldehyde, the transparent reaction mixture turns milky/opaque and a viscous sticky solid starts forming making stirring difficult. The reaction is stopped and the GC of the material is taken and a peak at 11.99 minutes is observed which corresponds to compound (4). The GC has some minor impurities in the high retention region. 20 mL of ethyl acetate is added to the reaction mixture and vigorously stirred under nitrogen. The entire content of the flask dissolve in ethyl acetate. The ethyl acetate layer is washed twice with 25 mL of water and the organic layer dried in magnesium sulfate.
A three neck 100 mL round bottom flask equipped with a stir bar, thermocouple, addition funnel capped with nitrogen inlet and condenser is charged with 3-aminobutan-2-ol (100%, 8.9 g, 0.1mols, 1.0 equivalent). […]

SMILES: CCCCC1OC2CCC=CN2C1CC (stereo not drawn) [Compound 1, 2-butyl-3-ethyl-3,7,8,8a-tetrahydro-2H-oxazolo[3,2-a]pyridine]
biocidal activity against aerobic bacteria (in words) [1]: do not show significant biocidal activity
minimum dose needed to achieve 3-log reduction in bacteria levels (Desulfovibrio longus; 4 hours): 200 ppm
minimum dose needed to achieve 3-log reduction in bacteria levels (Desulfovibrio longus; 24 hours): 26 ppm
activity against SRB (in words) (Desulfovibrio longus): some activity against SRB, but are not as effective as glutaraldehyde
log kill of treated bacterial populations relative to an untreated control ([2]; 37° C., 4 hr): >3 log
log kill of treated bacterial populations relative to an untreated control ([2]; 37° C., 24 hr re-challenge with fresh bacteria, enumerated after 4 h): 2 log
log kill of treated bacterial populations relative to an untreated control ([2]; 55° C., 4 hr): >3 log
log kill of treated bacterial populations relative to an untreated control ([2]; 55° C., 24 hr re-challenge with fresh bacteria, enumerated after 4 h): 1 log
activity compared with glutaraldehyde (in words) ([2]; 70° C.): equivalent activity to glutaraldehyde
log kill of treated bacterial populations relative to an untreated control ([2]; 70° C., 4 hr): >4 log
log kill of treated bacterial populations relative to an untreated control ([2]; 70° C., 24 hr re-challenge with fresh bacteria, enumerated after 4 h): >4 log
activity compared with glutaraldehyde (in words) ([2]; lower temperatures (37, 55° C.)): less effective

SMILES: CCCCC(CC)C1OC2CCC=CN2C1C (stereo not drawn) [Compound 2, 2-(heptan-3-yl)-3-methyl-3,7,8,8a-tetrahydro-2H-oxazolo[3,2-a]pyridine]
biocidal activity against aerobic bacteria (in words) [1]: do not show significant biocidal activity
minimum dose needed to achieve 3-log reduction in bacteria levels (Desulfovibrio longus; 1 hour): 200 ppm
minimum dose needed to achieve 3-log reduction in bacteria levels (Desulfovibrio longus; 4 hours): >200 ppm
activity against SRB (in words) (Desulfovibrio longus): some activity against SRB, but are not as effective as glutaraldehyde

stability of the compound (in words) [3]: limited stability
SMILES: CC1(C)COC2CCC=CN21 (stereo not drawn) [Compound 4, 3,3-dimethyl-3,7,8,8a-tetrahydro-2H-oxazolo[3,2-a]pyridine]

stability of the compound (in words) [3]: limited stability
SMILES: CC1OC2CCC=CN2C1C (stereo not drawn) [Compound 5, 2,3-dimethyl-3,7,8,8a-tetrahydro-2H-oxazolo[3,2-a]pyridine]
